Data published in patent US9624164B2, “Phenyl carbamate compounds for use in preventing or treating epilepsy” (Bio-Pharm Solutions Co., Ltd., priority 2011, dated 2017).
Where two headings read alike, the source gives them in different places.

Legend:
Format in all cases: in vivo
male ICR mice [1] = experiment: scPTZ test (subcutaneous pentylenetetrazol-induced clonic seizure), intraperitoneal administration, mice; conditions: ip
Method: (§1) After Peak time (0.5, 1, 2 and 4 hr) from the administration, PTZ (Pentylenetetrazol) was administered subcutaneously in the concentration capable of inducing 97% intermittent convulsions (mice: 100˜110 mg/kg·bw, 100 ul/g, or rats: 90˜110 mg/kg·bw, 20 ul/g). If clonic seizure was not observed for at least 3 seconds in the PTZ administered animal, it can be considered that the test compound has anti-epilepsy activity.

mice = experiment: Measurement of neurotoxicity (rotarod, Dunham and Miya); conditions: protective index
Method: The measurement of neurotoxicity of the test compounds was conducted by the method of Dunham and Miya [Dunham, N. W. and Miya, T. S. 1957. A note on a simple apparatus for detecting neurological deficit in rats and mice. J. Am. Pharm. Assoc. (Baltimore) 46: 208-209]. In the method, motor abilities of the test animals can be determined by observing whether the test animals can walk without falling from a rotator, thereby determining the value of neurotoxicity of each compound. […] They were pre-trained on the rotarod (Rotarod; Columbus instrument, rota-max, USA) at 6 rpm for 5 min 24 hr prior to the test. The peak time was determined by administration test material's random dose for 0.5, 1, 2, 4 hour. […] The ratio of TD50 to ED50 (TD50/ED50) is called as a protective index, and useful as a parameter for comparison of pharmaceutical efficacy and neurotoxicity.

male ICR mice [2] = experiment: MES test (maximal electroshock, corneal electrodes), oral administration, mice
male ICR mice [3] = experiment: scPTZ test (subcutaneous pentylenetetrazol-induced clonic seizure), intraperitoneal administration, mice; conditions: Mouse, ip, read-out: Duration of scPTZ test ED50
male SD rats [4] = experiment: MES test (maximal electroshock, corneal electrodes), oral administration, rats
male SD rats [5] = experiment: scPTZ test (subcutaneous pentylenetetrazol-induced clonic seizure), intraperitoneal administration, rats; conditions: ip; for ED50: Rat, read-out: Duration of scPTZ test ED50
Method: as §1

[6] = Mus musculus, mice, at peak time, read-out: ScPTZ test(ip) ED50

For `CC(OC(N)=O)C(O)c1ccccc1Cl` (racemic) [Compound 3, 1-(2-chlorophenyl)-1-hydroxypropyl-2-carbamate], the ED50 (male ICR mice [1]; [6]) was 15.3 mg/kg and the “PI (TD50/ED50 in MES)” value (mice) was 12.0.
For `C[C@H](OC(N)=O)[C@@H](O)c1ccccc1F` [Compound 63, 1-(2-fluorophenyl)-(S)-1-hydroxypropyl-(S)-2-carbamate], the responders at 50 mg/kg (male ICR mice [2]; Mus musculus, injection amount 50 mg/kg, 4 mice, read-out: MES test(po) Protection %) was 100%.
In the case of `CC[C@H](OC(N)=O)[C@@H](O)c1ccccc1Cl` [Compound 6, 1-(2-chlorophenyl)-(S)-1-hydroxybutyl-(S)-2-carbamate], the ED50 (male ICR mice [1]; [6]) is reported as 17.9 mg/kg.
For `CC[C@H](OC(N)=O)[C@@H](O)c1ccc(Cl)cc1Cl` [Compound 39, 1-(2,4-dichlorophenyl)-(S)-1-hydroxybutyl-(S)-2-carbamate], the ED50 (male ICR mice [1]; [6]) was 24.3 mg/kg.
In the case of `C[C@@H](OC(N)=O)[C@H](O)c1ccccc1Cl` [Compound 2, 1-(2-chlorophenyl)-(R)-1-hydroxypropyl-(R)-2-carbamate], the ED50 (male ICR mice [1]; [6]) is reported as 38.8 mg/kg and the “PI (TD50/ED50 in MES)” value (mice) is reported as 7.3.
`CCCCC(OC(N)=O)C(O)c1ccccc1Cl` (racemic) [Compound 14, 1-(2-chlorophenyl)-1-hydroxyhexyl-2-carbamate] showed a responders at 200 mg/kg (male ICR mice [2]; Mus musculus, injection amount 200 mg/kg, 4 mice, read-out: MES test(po) Protection %) of 100%.
Work on `CCC(OC(N)=O)C(O)c1ccccc1Cl` (racemic) [Compound 8, 1-(2-chlorophenyl)-1-hydroxybutyl-2-carbamate] yielded a responders at 100 mg/kg (male ICR mice [2]; Mus musculus, injection amount 100 mg/kg, 4 mice, read-out: MES test(po) Protection %) of 100%.
For `C[C@H](OC(N)=O)[C@H](O)c1ccccc1Cl` [Compound 5, 1-(2-chlorophenyl)-(R)-1-hydroxypropyl-(S)-2-carbamate], the ED50 (male ICR mice [1]; [6]) was 15 mg/kg and the “PI (TD50/ED50 in MES)” value (mice) was 3.3.
Work on `C[C@H](OC(N)=O)[C@@H](O)c1ccccc1Cl` [Compound 1, 1-(2-chlorophenyl)-(S)-1-hydroxypropyl-(S)-2-carbamate] yielded an ED50 (male ICR mice [1]; Mouse, 0.5 h, read-out: Duration of scPTZ test ED50) of 17.3 mg/kg, an ED50 (male ICR mice [1]; Mouse, 1 h, read-out: Duration of scPTZ test ED50) of 16.9 mg/kg and an ED50 (male ICR mice [1]; Mouse, 2 h, read-out: Duration of scPTZ test ED50) of 15.8 mg/kg. The ED50 (male ICR mice [1]; Mouse, 4 h, read-out: Duration of scPTZ test ED50) was 27.4 mg/kg, the ED50 (male ICR mice [1]; [6]) was 15.8 mg/kg and the efficacy duration time (male ICR mice [1]; scPTZ test, mice) was “at least 12 hours”. The ED50 (male ICR mice [3]; 6 h) was 52.2 mg/kg, the ED50 (male ICR mice [3]; 8 h) was 80.7 mg/kg and the ED50 (male ICR mice [3]; 12 h) was 201 mg/kg. The efficacy duration time (male SD rats [4]) was “at least 12 hours”, the ED50 (male SD rats [5]; 0.5 h) was 18.9 mg/kg and the ED50 (male SD rats [5]; 1 h) was 14.5 mg/kg. The ED50 (male SD rats [5]; 2 h) was 21 mg/kg, the ED50 (male SD rats [5]; 4 h) was 31 mg/kg and the ED50 (male SD rats [5]; 8 h) was 41.3 mg/kg. For the same compound, the ED50 (male SD rats [5]; 12 h) was 76.7 mg/kg, the efficacy duration time (male SD rats [5]; scPTZ test, rats) was “at least 12 hours” and the “PI (TD50/ED50 in MES)” value (mice) was 16.8. The efficacy duration time (male ICR mice [2]; MES test, mice) was “at least 12 hours”.
`C[C@H](OC(N)=O)[C@@H](O)c1c(Cl)cccc1Cl` [Compound 37, 1-(2,6-dichlorophenyl)-(S)-1-hydroxypropyl-(S)-2-carbamate] was tested, and the ED50 (male ICR mice [1]; [6]) was 25.7 mg/kg and the “PI (TD50/ED50 in MES)” value (mice) was 5.1.
